Consider 12 molecules from the supplement of paper PMC10883282.

The test system of this assay is RD-ES. Description: relative viability vs DMSO control (72 h) (fraction); higher = more viable cells. The gist of the method: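 Serially diluted compound, 2.5 µl from source plates spanning 10 mM to 0.0002 mM, was added 24 h after sarcoma cell lines were seeded in 384-well plates at densities targeting 80–90% confluence. Plates then sat 72 h at 37 °C, 5% CO2, with 0.1% DMSO vehicle and a 5 µM positive control. Relative viability came from ATPLite as percent growth, averaged over up to triplicate wells, and was rescaled with 1 as full and 0 as none.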

SMILES strings stand for the structures. ± gives the standard deviation of the averaged measurements.

Regarding `CNC(=O)c1ccc(-c2cnc3ncc(Cc4ccc5ncccc5c4)n3n2)cc1F` [Capmatinib], the relative viability came out at 0.992 ± 0.014 (0.00017 µM); 1.005 ± 0.0083 (0.00051 µM); 0.9871 ± 0.0074 (0.00152 µM); 0.994 ± 0.017 (0.00457 µM); 0.98 ± 0.021 (0.01372 µM); 1 ± 0.018 (0.04115 µM). The relative viability is, setting by setting: (0.1235 µM) 1.01 ± 0.023; (0.3704 µM) 1.03 ± 0.024; (1.111 µM) 1.03 ± 0.025; (3.333 µM) 1.02 ± 0.011; (10 µM) 1 ± 0.028.

On to `CCCS(=O)(=O)Nc1ccc(F)c(C(=O)c2c[nH]c3ncc(-c4ccc(Cl)cc4)cc23)c1F` [Vemurafenib], for which the relative viability runs as follows: (0.00017 µM) 0.978 ± 0.032; (0.00051 µM) 0.983 ± 0.024; (0.00152 µM) 0.975 ± 0.044; (0.00457 µM) 0.995 ± 0.051; (0.01372 µM) 0.982 ± 0.039; (0.04115 µM) 0.994 ± 0.05. Moreover, the relative viability is, setting by setting: (0.1235 µM) 0.99 ± 0.041; (0.3704 µM) 0.991 ± 0.047; (1.111 µM) 0.984 ± 0.039; (3.333 µM) 0.967 ± 0.042; (10 µM) 0.7 ± 0.27.

Consider `Cc1ccc(F)c(NC(=O)Nc2ccc(-c3cccc4[nH]nc(N)c34)cc2)c1` [Linifanib], for which the relative viability runs as follows: (0.00017 µM) 1 ± 0.043; (0.00051 µM) 0.998 ± 0.012; (0.00152 µM) 0.994 ± 0.011; (0.00457 µM) 0.978 ± 0.023; (0.01372 µM) 1 ± 0.028; (0.04115 µM) 1.01 ± 0.048. Moreover, the relative viability by setting is: (0.1235 µM) 1 ± 0.014; (0.3704 µM) 0.982 ± 0.038; (1.111 µM) 1.01 ± 0.018; (3.333 µM) 0.975 ± 0.022; (10 µM) 0.983 ± 0.043.

With `CC(C)N1CCN(Cc2cnc(-c3cc(-c4cccc5[nH]ccc45)cc4[nH]ncc34)o2)CC1` [Nemiralisib], the relative viability by setting is: (0.00017 µM) 1 ± 0.036; (0.00051 µM) 1 ± 0.016; (0.00152 µM) 0.973 ± 0.028; (0.00457 µM) 0.978 ± 0.023; (0.01372 µM) 0.987 ± 0.03; (0.04115 µM) 1.02 ± 0.042. Besides, the relative viability by setting is: (0.1235 µM) 0.9842 ± 0.004; (0.3704 µM) 1.01 ± 0.041; (1.111 µM) 0.984 ± 0.036; (3.333 µM) 0.854 ± 0.016; (10 µM) 0.223 ± 0.033.

Take `COCc1c(-c2cc3cc(C)cc(OC)c3s2)c2c(N)ncnn2c1CN1CCNC(=O)C1` [Rogaratinib]: the relative viability is, setting by setting: (0.00017 µM) 1.04 ± 0.027; (0.00051 µM) 0.997 ± 0.028; (0.00152 µM) 1.03 ± 0.012; (0.00457 µM) 1.02 ± 0.032; (0.01372 µM) 1.03 ± 0.013; (0.04115 µM) 1 ± 0.036. Also, the relative viability reads like this: (0.1235 µM) 0.971 ± 0.043; (0.3704 µM) 0.958 ± 0.013; (1.111 µM) 0.91 ± 0.029; (3.333 µM) 0.774 ± 0.014; (10 µM) 0.455 ± 0.0058.

Take `Cc1cc(Nc2ncnc3ccc(NC4=NC(C)(C)CO4)cc23)ccc1Oc1ccn2ncnc2c1` [Tucatinib]: the relative viability (0.00017 µM) stood at 0.989 ± 0.03; the relative viability (0.00051 µM) is 0.999 ± 0.035; the relative viability (0.00152 µM) was found to be 1 ± 0.027; the relative viability (0.00457 µM) is 1 ± 0.035; the relative viability (0.01372 µM) came out at 0.95 ± 0.055; the relative viability (0.04115 µM) was 0.996 ± 0.027. This molecule showed a relative viability (0.1235 µM) of 0.991 ± 0.014; a relative viability (0.3704 µM) of 0.974 ± 0.02; a relative viability (1.111 µM) of 0.985 ± 0.037; a relative viability (3.333 µM) of 0.983 ± 0.031; a relative viability (10 µM) of 0.9422 ± 0.0042.

For `O=C(Nc1cnn2ccc(N3CCC[C@@H]3c3cc(F)ccc3F)nc12)N1CC[C@H](O)C1` [Larotrectinib], the relative viability runs as follows: (0.00017 µM) 0.95 ± 0.031; (0.00051 µM) 0.963 ± 0.01; (0.00152 µM) 0.978 ± 0.05; (0.00457 µM) 0.961 ± 0.024; (0.01372 µM) 0.9532 ± 0.0046; (0.04115 µM) 0.976 ± 0.016. The relative viability is, setting by setting: (0.1235 µM) 0.961 ± 0.013; (0.3704 µM) 0.964 ± 0.014; (1.111 µM) 0.968 ± 0.022; (3.333 µM) 0.931 ± 0.052; (10 µM) 0.932 ± 0.042.

Take `CN1CCC(COc2cnc(-c3cccc(Cn4nc(-c5cccc(C#N)c5)ccc4=O)c3)nc2)CC1` [Tepotinib]: the relative viability is, setting by setting: (0.00017 µM) 0.997 ± 0.016; (0.00051 µM) 1.01 ± 0.013; (0.00152 µM) 1.01 ± 0.014; (0.00457 µM) 1 ± 0.013; (0.01372 µM) 0.971 ± 0.024; (0.04115 µM) 1 ± 0.017. The molecule also came in with a relative viability (0.1235 µM) of 0.99 ± 0.043; a relative viability (0.3704 µM) of 0.991 ± 0.035; a relative viability (1.111 µM) of 0.969 ± 0.029; a relative viability (3.333 µM) of 0.953 ± 0.017; a relative viability (10 µM) of 0.887 ± 0.025.

On to `C[C@@H]1CCN(C(=O)CC#N)C[C@@H]1N(C)c1ncnc2[nH]ccc12` [Tofacitinib], for which the relative viability is 0.942 ± 0.038 (0.00017 µM); 0.962 ± 0.035 (0.00051 µM); 0.952 ± 0.053 (0.00152 µM); 0.966 ± 0.045 (0.00457 µM); 0.961 ± 0.024 (0.01372 µM); 0.962 ± 0.06 (0.04115 µM). Besides, the relative viability is, setting by setting: (0.1235 µM) 0.949 ± 0.047; (0.3704 µM) 0.965 ± 0.034; (1.111 µM) 0.955 ± 0.045; (3.333 µM) 0.988 ± 0.051; (10 µM) 1.02 ± 0.044.

Regarding `N#CC[C@H](C1CCCC1)n1cc(-c2ncnc3[nH]ccc23)cn1` [Ruxolitinib], the relative viability is, setting by setting: (0.00017 µM) 0.938 ± 0.025; (0.00051 µM) 0.967 ± 0.014; (0.00152 µM) 0.95 ± 0.031; (0.00457 µM) 0.949 ± 0.024; (0.01372 µM) 0.932 ± 0.025; (0.04115 µM) 0.939 ± 0.05. Also, the relative viability by setting is: (0.1235 µM) 0.933 ± 0.057; (0.3704 µM) 0.946 ± 0.029; (1.111 µM) 0.939 ± 0.028; (3.333 µM) 0.941 ± 0.028; (10 µM) 0.954 ± 0.065.

On to `C=CC(=O)N1CCC[C@@H](n2nc(-c3ccc(Oc4ccccc4)cc3)c3c(N)ncnc32)C1` [Ibrutinib], for which the relative viability is 0.985 ± 0.032 (0.00017 µM); 0.967 ± 0.043 (0.00051 µM); 0.993 ± 0.05 (0.00152 µM); 0.97 ± 0.038 (0.00457 µM); 0.976 ± 0.04 (0.01372 µM); 0.988 ± 0.032 (0.04115 µM). In addition, the relative viability came to 0.957 ± 0.034 (0.1235 µM); 0.969 ± 0.015 (0.3704 µM); 0.989 ± 0.04 (1.111 µM); 0.957 ± 0.031 (3.333 µM); 0.882 ± 0.013 (10 µM).

Turning to `COc1c(OCCCN2CCOCC2)ccc2c1N=C(NC(=O)c1cnc(N)nc1)N1CCN=C21` [Copanlisib], the relative viability is, setting by setting: (0.00017 µM) 0.977 ± 0.031; (0.00051 µM) 0.932 ± 0.023; (0.00152 µM) 0.947 ± 0.056; (0.00457 µM) 0.638 ± 0.087; (0.01372 µM) 0.571 ± 0.05; (0.04115 µM) 0.494 ± 0.023. In addition, the relative viability stood at 0.344 ± 0.013 (0.1235 µM); 0.218 ± 0.0085 (0.3704 µM); 0.0703 ± 0.0047 (1.111 µM); 0.007 ± 0.00036 (3.333 µM); 0.0101 ± 0.0011 (10 µM).
